# Molecular target: T1, EGF receptor tyrosine kinase (Homo sapiens, UniProt P00533)
# T1 construct: Receptor tyrosine kinase was obtained in partially purified form from A-431 cells; endogenous in cells; host or cells: A-431 cells (human vulval carcinoma), solubilised membrane preparation
# Test: Test (a): in vitro inhibition of the enzyme EGF receptor tyrosine kinase
# Assay type: biochemical
# Details: enzyme partially purified from A-431 cells
# Protocol: (a) An in vitro assay which determines the ability of a test compound to inhibit the enzyme EGF receptor tyrosine kinase. Receptor tyrosine kinase was obtained in partially purified form from A-431 cells (derived from human vulval carcinoma) by the procedures described below which are related to those described by Carpenter et al, J. Biol. Chem., 1979, 254, 4884, Cohen et al., J. Biol. Chem., 1982, 257, 1523 and by Braun et al., J. Biol Chem., 1984, 259, 2051.
# A-431 cells were grown to confluence using Dulbecco's modified Eagle's medium DMEM) containing 5% fetal calf serum (FCS). The obtained cells were homogenised in a hypotonic borate/EDTA buffer at pH 10.1. The homogenate was centrifuged at 400 g for 10 minutes at 0-4° C. The supernatant was centrifuged at 25,000 g for 30 minutes at 0-4° C. […]
# The test compound/EGF mixture solution (5 μl) was added to the test enzyme solution (10 μl) and the mixture was incubated at 0-4° C. for 30 minutes. […] Radioactivity present in the filter paper was measured using a liquid scintillation counter (Sequence A). […]
# Receptor tyrosine kinase inhibition was calculated as follows: [formula]
# The extent of inhibition was then determined at a range of concentrations of test compound to give an IC50 value.
# T1 sequence (P00533 25-1210): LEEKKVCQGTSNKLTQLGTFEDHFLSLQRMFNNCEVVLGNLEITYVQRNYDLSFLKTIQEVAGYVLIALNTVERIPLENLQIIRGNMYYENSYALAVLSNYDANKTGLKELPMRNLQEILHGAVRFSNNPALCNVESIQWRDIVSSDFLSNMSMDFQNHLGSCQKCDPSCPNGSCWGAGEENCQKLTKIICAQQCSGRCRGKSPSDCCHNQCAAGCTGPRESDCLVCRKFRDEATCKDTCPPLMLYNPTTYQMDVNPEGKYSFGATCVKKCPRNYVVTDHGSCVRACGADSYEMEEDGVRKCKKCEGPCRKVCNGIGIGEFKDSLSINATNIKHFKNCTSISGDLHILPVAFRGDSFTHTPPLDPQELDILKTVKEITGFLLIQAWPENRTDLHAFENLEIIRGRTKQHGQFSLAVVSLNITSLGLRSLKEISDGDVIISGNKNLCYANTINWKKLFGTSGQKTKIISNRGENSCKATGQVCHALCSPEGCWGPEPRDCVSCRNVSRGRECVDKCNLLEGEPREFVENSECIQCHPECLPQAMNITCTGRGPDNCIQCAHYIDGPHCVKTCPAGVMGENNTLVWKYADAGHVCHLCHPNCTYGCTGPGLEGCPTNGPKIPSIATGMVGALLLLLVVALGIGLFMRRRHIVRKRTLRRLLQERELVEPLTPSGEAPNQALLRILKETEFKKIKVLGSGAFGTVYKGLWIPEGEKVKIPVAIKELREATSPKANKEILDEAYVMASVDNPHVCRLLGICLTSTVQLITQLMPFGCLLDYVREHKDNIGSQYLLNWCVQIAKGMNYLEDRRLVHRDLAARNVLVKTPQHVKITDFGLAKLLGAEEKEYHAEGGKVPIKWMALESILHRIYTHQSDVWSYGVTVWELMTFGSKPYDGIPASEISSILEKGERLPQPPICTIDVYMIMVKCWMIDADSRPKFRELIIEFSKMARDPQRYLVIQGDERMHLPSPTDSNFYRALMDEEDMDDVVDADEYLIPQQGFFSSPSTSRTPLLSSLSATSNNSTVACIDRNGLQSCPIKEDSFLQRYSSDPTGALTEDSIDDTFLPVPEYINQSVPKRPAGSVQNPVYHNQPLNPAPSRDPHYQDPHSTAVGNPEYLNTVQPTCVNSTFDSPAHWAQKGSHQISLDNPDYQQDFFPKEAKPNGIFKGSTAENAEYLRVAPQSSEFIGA
row,IC50 [nM],SMILES
1,40,"Fc1ccc(Nc2ncnc3ccc(-c4ccc(CCN5CCOCC5)s4)cc23)cc1Cl [Example 8, 4-(3-chloro-4-fluoroanilino)-6-[5-(2-morpholinoethyl)thien-2-yl]quinazoline]"

# Test system: human naso-pharyngeal cancer cell line KB
# Test: Test (b): in vitro inhibition of EGF-stimulated growth of KB cells
# Assay type: cell-based
# Details: EGF (10 ng/ml) stimulated growth, MTT
# Protocol: (b) An in vitro assay which determines the ability of a test compound to inhibit the EGF-stimulated growth of the human naso-pharyngeal cancer cell line KB.
# KB cells were seeded into wells at a density of 1×10^4-1.5×10^4 cells per well and grown for 24 hours in DMEM supplemented with 5% FCS (charcoal-stripped). Cell growth was determined after. incubation for 3 days by the extent of metabolism of MTT tetrazolium dye to furnish a bluish colour. Cell growth was then determined in the presence of EGF (10 ng/ml) or in the presence of EGF (10 ng/ml) and a test compound at a range of concentrations. An IC50 value could then be calculated.
row,IC50 [nM],SMILES
1,190,"Fc1ccc(Nc2ncnc3ccc(-c4ccc(CCN5CCOCC5)s4)cc23)cc1Cl [Example 8, 4-(3-chloro-4-fluoroanilino)-6-[5-(2-morpholinoethyl)thien-2-yl]quinazoline]"

# Test system: xenografts of the human vulval epidermoid carcinoma cell line A-431
# Test: Test (d): in vivo inhibition of growth of A-431 xenografts in athymic nude mice
# Details: dosage of 50 mg/kg/day
# Protocol: (d) An in-vivo assay in a group of athymic nude mice (strain ONU:Alpk) which determines the ability of a test compound (usually administered orally as a ball-milled suspension in 0.5% polysorbate) to inhibit the growth of xenografts of the human vulval epidermoid carcinoma cell line A-431.
# A-431 cells were maintained in culture in DMEM supplemented with 5% FCS and 2 mM glutamine. Freshly cultured cells were harvested by trypsinization and injected subcutaneously (10 million cells/0.1 ml/mouse) into both flanks of a number of donor nude mice. When sufficient tumour material was available (after approximately 9 to 14 days), fragments of tumour tissue were transplanted into the flanks of recipient nude mice (test day 0). Generally, on the seventh day after transplantation (test day 7) groups of 7 to 10 mice with similar-sized tumours were selected and dosing of the test compound was commenced. Once-daily dosing of test compound was continued for a total of 13 days (test days 7 to 19 inclusive). In some studies the dosing of the test compound was continued beyond test day 19, for example to test day 26. In each case, on the following day the animals were killed and final tumour volume was calculated from measurements of the length and width of the tumours. Results were calculated as a percentage inhibition of tumour volume relative to untreated controls.
row,SMILES,inhibition in Test (d) (tumour volume relative to untreated controls) [%]
1,"Fc1ccc(Nc2ncnc3ccc(-c4ccc(CCN5CCOCC5)s4)cc23)cc1Cl [Example 8, 4-(3-chloro-4-fluoroanilino)-6-[5-(2-morpholinoethyl)thien-2-yl]quinazoline]",64

# Test system: not given
# Test: not given
# Details: not given
row,melting point [°C],SMILES
1,195 to 197,"Fc1ccc(Nc2ncnc3ccc(-c4ccsc4)cc23)cc1Cl [Example 7, 4-(3-chloro-4-fluoroanilino)-6-(3-thienyl)quinazoline]"
2,123 to 129,"Cc1cccc(Nc2ncnc3ccc(CSc4nc5ccccc5[nH]4)cc23)c1 [Example 37, 6-(2-benzimidazolylthiomethyl)-4-(3-methylanilino)quinazoline]"
3,207 to 209,"Cc1cccc(Nc2ncnc3ccc(-c4ccccc4)cc23)c1 [Example 2, 4-(3-methylanilino)-6-phenylquinazoline]"
4,232 to 234,"Fc1ccc(Nc2ncnc3ccc(-c4ccco4)cc23)cc1Cl [Example 5, 4(3-chloro-4-fluoroanilino)-6-(2-furyl)quinazoline]"
5,> 260,"CNc1cc2ncnc(Nc3ccc(F)c(Cl)c3)c2cc1NC(=O)c1cccnc1 [Example 24, 4-(3-chloro-4-fluoroanilino)-7-methylamino-6-(pyridine-3-carboxamido)quinazoline]"
6,> 250,Cl.O=C(Nc1ccc2ncnc(Nc3ccc(F)c(Cl)c3)c2c1)c1cccs1
7,193 to 195,"Fc1ccc(Nc2ncnc3ccc(NCc4cccs4)cc23)cc1Cl [Example 19, 4-(3-chloro-4-fluoroanilino)-6-(2-thienylmethylamino)quinazoline]"
8,205 to 206,"Cc1cc(Nc2ncnc3ccc(-c4cccs4)cc23)ccc1OCc1ccccn1 [Example 38, 4-[3-methyl-4-(2-pyridylmethoxy)anilino]-6-(2-thienyl)-quinazoline]"
9,206 to 208,"Cc1cc(Nc2ncnc3ccc(-c4ccoc4)cc23)ccc1OCc1ccccn1 [Example 39, 6-(3-furyl)-4-[3-methyl-4-(2-pyridylmethoxy)anilino]-quinazoline]"
10,> 250,"N#Cc1ccc(-c2ccc3ncnc(Nc4ccc(F)c(Cl)c4)c3c2)cc1 [Example 1, 4-(3-chloro-4-fluoroanilino)-6-(4-cyanophenyl)quinazoline]"
11,217 to 219,"Cc1cccc(Nc2ncnc3ccc(CSc4ncc[nH]4)cc23)c1 [Example 36, 6-(2-imidazolylthiomethyl)-4-(3-methylanilino)-quinazoline]"
12,205 to 208,"Fc1ccc(Nc2ncnc3ccc(-c4cccs4)cc23)cc1Cl [Example 6, 4-(3-chloro-4-fluoroanilino)-6-(2-thienyl)quinazoline]"
13,207 to 208,"Cc1cccc(Nc2ncnc3ccc(NCc4ccsc4)cc23)c1 [Example 16, 4-(3-methylanilino)-6-(3-thienylmethylamino)quinazoline]"
14,> 250,Cl.O=C(Nc1ccc2ncnc(Nc3ccc(F)c(Cl)c3)c2c1)c1ccno1
15,137 to 139,"Cc1cccc(Nc2ncnc3ccc(CSc4nccn4C)cc23)c1 [Example 35, 4-(3-methylanilino)-6-(N-methylimidazol-2-ylthiomethyl)quinazoline]"
16,256 to 258,"Cc1cccc(Nc2ncnc3ccc(Nc4ncc[nH]4)cc23)c1 [Example 14, 6-(2-imidazolylamino)-4-(3-methylanilino)quinazoline]"
17,64 to 68,"Cc1cccc(Nc2ncnc3ccc(CSc4c[nH]nn4)cc23)c1 [Example 34, 4-(3-methylanilino)-6-(1,2,3-triazol-4-ylthiomethyl)quinazoline]"
18,> 250,"Cc1cccc(Nc2ncnc3ccc(NS(=O)(=O)c4cn(C)cn4)cc23)c1 [Example 15, 4-(3-methylanilino)-6-(1-methylimidazole-4-sulphonamido)quinazoline]"

# Test system: transplanted human mammary carcinoma
# Test: not given
# Details: carcinoma which does not express EGF receptor tyrosine kinase; cited from earlier work
row,SMILES,growth of another carcinoma
1,O=CN/C=C/c1cc(O)ccc1O [erbstatin],without effect on the growth

# Same assay, conditions: carcinoma which expresses EGF receptor tyrosine kinase; athymic nude mice; cited from earlier work
row,SMILES,growth of transplanted human mammary carcinoma
1,O=CN/C=C/c1cc(O)ccc1O [erbstatin],specifically attenuates the growth

# From patent US6897214B2, “Quinazoline derivatives” (Zeneca Limited, priority 1996, dated 2005)
